From article PMC3154276, “The Effect of the Potential PhoQ Histidine Kinase Inhibitors on Shigella flexneri Virulence” (PLoS ONE, 2011)

Experiments:
SF-PhoQc = molecular target: T1, SF-PhoQc (Shigella flexneri, UniProt Q83RR1); assay: Pyrophosphate Reagent coupled enzymatic activity assay of SF-PhoQc; assay type: biochemical, S. flexneri 2a 301; conditions: for decrease of SF-PhoQc catalyzed consumption of ATP: Pyrophosphate Reagent
T1 construct: The amplified DNA segment encodes PhoQ HK amino acids 251–486; made in house; host or cells: E. coli JM109
Experimental: The enzymatic activity of SF-PhoQc was determined using the Pyrophosphate Reagent, in which ATP initiates the reaction and ADP generated by ATP is accompanied by the reduction of NADH to NAD^+. The rate of NADH reduction to NAD^+ is detected by a change in absorbance readings at 340 nm. The activity of SF-PhoQc is measured by detecting a decrease in NADH at A340. Recombinant SF-PhoQc (25 µmol/L) was added to initiate the reaction, and the A340 value was recorded by SoftMax vision 4.8 each minute for 30 minutes. The A340 value reduced from 1.47 to 0.65 in the presence of SF-PhoQc (Figure 2).
Figure 2 The activity of recombinant SF-PhoQc. The activity of SF-PhoQc from the Pyrophosphate Reagent was shown. All assays were conducted in a 96-well microplate spectrophotometer. The assay mixture (total volume was 200 µl) contained 25 mmol/L KCl, 2.5 mmol/L MgCl2, 2 mmol/L ATP, 1 mmol/L phosphoendpyruvate, 0.35 mmol/L NADH, 1.5 U/ml PK, 1.25 U/ml LDH and 50 mmol/L Tris-Cl (pH 8.0). Protein SF-PhoQc was added to a final concentration of 25 µmol/L to start the reaction. After SF-PhoQc was added, the A340 value was recorded by SoftMax vision 4.8 every minute for 30 minutes.
The enzymatic activity of SF-PhoQc was measured using both a Pyrophosphate Reagent (Sigma-Aldrich, MO, USA) and a Luminescent Kinase Assay (Promega, WI, USA). The Pyrophosphate Reagent was performed to confirm the inhibitory activities of the effective potential PhoQ inhibitors in the bioinformatics approach. All reactions were carried out in solid black, flat-bottomed 96-well plates. The Pyrophosphate Reagent was performed at 28°C by monitoring the decrease of NADH by a decrease in absorbance readings at 340 nm (ε340 = 6180 M^−1·cm^−1) in the presence of ATP. The final reaction mixture for the Pyrophosphate Reagent contained 25 µmol/L purified SF-PhoQc, 25 mmol/L KCl, 2.5 mmol/L MgCl2, 2 mmol/L ATP, 1 mmol/L phosphoendpyruvate, 0.35 mmol/L NADH, 1.5 U/ml PK, 1.25 U/ml LDH and 50 mmol/L Tris-Cl (pH 8.0). The enzyme activity was determined in the presence of various concentrations of potential PhoQ inhibitors […] to investigate dose-dependent inhibition effects. The A340 value was recorded by SoftMax vision 4.8 every minute, for 30 minutes. The rate of SF-PhoQc enzymatic activity inhibition by a compound was calculated by the following formula: [drawing 1]
Rp (Ratio of Phosphorylation) was defined as the ratio of the decrease activity of SF-PhoQc treated with compound vs the activity of SF-PhoQc treated without compounds. Rp was stand for the percentage of decrease activity of SF-PhoQc.
IC50(the concentration of inhibition of 50%)values of potential PhoQ inhibitors were obtained by fitting the data to a sigmoid dose–response equation using Origin 7.0 software (OriginLab, Northampton, USA).

S. flexneri Sf9380 = assay: Mouse Sereny test (keratoconjunctivitis); for degree of keratoconjunctival inflammation: key: −: no disease; ±: little keratoconjunctivitis; +: mild keratoconjunctivitis; ++: keratoconjunctivitis with some purulence; +++: fully developed keratoconjunctivitis with great purulence; assay type: in vivo, BALB/c mice; conditions: for degree of keratoconjunctival inflammation: Sf9380 pre-treated at the concentration (I 1 12.5, I 2 25, I 3 and I 4 100 µmol/L); for keratoconjunctival inflammation (words, abstract): mice inoculated with pre-treated S. flexneri 9380
Source text: A Mouse Sereny test was used to investigate the inhibitory effect of the four potential PhoQ inhibitors on the virulence of S. flexneri Sf9380. The mice were infected with 1×10^8 CFUs per eye.
A Mouse Sereny test was used to evaluate the virulence of S. flexneri Sf9380 [48]. A single red colony of Sf9380 on Congo Red agar (Tryptic soy broth provided by Oxfoid Co. with 1.5% agar and 0.01% Congo red), was inoculated into LB and grown with or without potential PhoQ inhibitors (final concentration 100,50,25,12.5 or 6.25 µmol/L) at 37°C for 8 hours with constant shaking. The female BALB/c mice (about 18 g) were infected with 1×10^8 CFUs per eye. The eye of the mouse was inoculated with the bacterium with or without potential PhoQ inhibitor treatment (n = 6 mice in each group). […] In the experiment, mouse eyes inoculated with untreated Sf9380 (treated without DMSO) served as the positive control for keratoconjunctivitis, and mouse eyes inoculated with E. coli ATCC 25922 (treated without DMSO) served as the negative control. Because DMSO is the solvent of the potential PhoQ inhibitor, Sf9380 was treated with the same amount of DMSO (0.1%) as the other groups. The invasiveness of the bacteria was scored: no disease or mild irritation as “−”, + as mild conjunctivitis or late development and/or rapid clearing of symptoms, ++ as keratoconjunctivitis without purulence, and +++ as fully developed keratoconjunctivitis with purulence.

[1] = Sf9380 pre-treated with 100 µmol/L, 1×10^8 CFUs per eye
[2] = Sf9380 pre-treated with 25 µmol/L, 1×10^8 CFUs per eye

T1 sequence (Q83RR1 251-486): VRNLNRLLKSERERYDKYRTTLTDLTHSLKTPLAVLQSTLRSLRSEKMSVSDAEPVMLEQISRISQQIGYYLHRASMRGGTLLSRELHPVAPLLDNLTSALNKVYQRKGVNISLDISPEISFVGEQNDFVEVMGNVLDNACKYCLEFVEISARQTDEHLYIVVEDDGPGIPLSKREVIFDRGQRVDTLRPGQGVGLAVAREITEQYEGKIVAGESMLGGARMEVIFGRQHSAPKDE

| Structure (SMILES) | IC50 (SF-PhoQc) | decrease of SF-PhoQc catalyzed consumption of ATP (SF-PhoQc) | degree of keratoconjunctival inflammation (S. flexneri Sf9380; 24 h, mouse 1) | degree of keratoconjunctival inflammation (S. flexneri Sf9380; 24 h, mouse 2) | degree of keratoconjunctival inflammation (S. flexneri Sf9380; 24 h, mouse 3) | degree of keratoconjunctival inflammation (S. flexneri Sf9380; 24 h, mouse 4) | degree of keratoconjunctival inflammation (S. flexneri Sf9380; 24 h, mouse 5) | degree of keratoconjunctival inflammation (S. flexneri Sf9380; 24 h, mouse 6) | degree of keratoconjunctival inflammation (S. flexneri Sf9380; 48 h, mouse 1) | degree of keratoconjunctival inflammation (S. flexneri Sf9380; 48 h, mouse 2) | degree of keratoconjunctival inflammation (S. flexneri Sf9380; 48 h, mouse 3) | degree of keratoconjunctival inflammation (S. flexneri Sf9380; 48 h, mouse 4) | degree of keratoconjunctival inflammation (S. flexneri Sf9380; 48 h, mouse 5) | degree of keratoconjunctival inflammation (S. flexneri Sf9380; 48 h, mouse 6) | degree of keratoconjunctival inflammation (S. flexneri Sf9380; 72 h, mouse 1) | degree of keratoconjunctival inflammation (S. flexneri Sf9380; 72 h, mouse 2) | degree of keratoconjunctival inflammation (S. flexneri Sf9380; 72 h, mouse 3) | degree of keratoconjunctival inflammation (S. flexneri Sf9380; 72 h, mouse 4) | degree of keratoconjunctival inflammation (S. flexneri Sf9380; 72 h, mouse 5) | degree of keratoconjunctival inflammation (S. flexneri Sf9380; 72 h, mouse 6) | other results |
| --- | --- | --- | --- | --- | --- | --- | --- | --- | --- | --- | --- | --- | --- | --- | --- | --- | --- | --- | --- | --- | --- |
| O=C(O)c1ccc(Cl)c(-c2ccc(/C=N/NC(=O)c3ccc(Br)cc3)o2)c1 [Compound 3] | 27.8 ± 10.7 µM | 67.1% | + | + | + | + | + | + | + | − | − | − | + | − | − | + | − | − | − | − | degree of keratoconjunctival inflammation (S. flexneri Sf9380; 96 h, mouse 1): −; degree of keratoconjunctival inflammation (S. flexneri Sf9380; 96 h, mouse 2): −; degree of keratoconjunctival inflammation (S. flexneri Sf9380; 96 h, mouse 3): −; degree of keratoconjunctival inflammation (S. flexneri Sf9380; 96 h, mouse 4): −; degree of keratoconjunctival inflammation (S. flexneri Sf9380; 96 h, mouse 5): −; degree of keratoconjunctival inflammation (S. flexneri Sf9380; 96 h, mouse 6): −; eye finding at 24 hours post-infection (S. flexneri Sf9380; [1]): slight conjunctival inflammation; time by which keratoconjunctivitis was resolved (S. flexneri Sf9380; [1]): ≤ 72 h; keratoconjunctival inflammation (words, abstract) (S. flexneri Sf9380): no inflammation |
| CCOc1ccccc1-c1cc(C(=O)N/N=C/c2ccc(OCc3ccccc3)c(OC)c2)c2ccccc2n1 [Compound 2] | 57 ± 1.04 µM | 82.3% | + | + | + | + | + | + | − | + | − | − | − | − | − | − | − | − | − | − | degree of keratoconjunctival inflammation (S. flexneri Sf9380; 96 h, mouse 1): −; degree of keratoconjunctival inflammation (S. flexneri Sf9380; 96 h, mouse 2): −; degree of keratoconjunctival inflammation (S. flexneri Sf9380; 96 h, mouse 3): −; degree of keratoconjunctival inflammation (S. flexneri Sf9380; 96 h, mouse 4): −; degree of keratoconjunctival inflammation (S. flexneri Sf9380; 96 h, mouse 5): −; degree of keratoconjunctival inflammation (S. flexneri Sf9380; 96 h, mouse 6): −; eye finding at 24 hours after infection (S. flexneri Sf9380; [2]): slight conjunctival inflammation; time by which keratoconjunctivitis was resolved (S. flexneri Sf9380; [2]): ≤ 48 h; keratoconjunctival inflammation (words, abstract) (S. flexneri Sf9380): no inflammation |
| O=C(O)c1cc(-c2ccc(-c3ccccc3Cl)o2)nc2ccc3ccccc3c12 [Compound 4] | 27.8 ± 5.59 µM | 65.8% | + | + | + | + | + | − | + | − | − | − | + | − | + | − | − | − | − | − | degree of keratoconjunctival inflammation (S. flexneri Sf9380; 96 h, mouse 1): −; degree of keratoconjunctival inflammation (S. flexneri Sf9380; 96 h, mouse 2): −; degree of keratoconjunctival inflammation (S. flexneri Sf9380; 96 h, mouse 3): −; degree of keratoconjunctival inflammation (S. flexneri Sf9380; 96 h, mouse 4): −; degree of keratoconjunctival inflammation (S. flexneri Sf9380; 96 h, mouse 5): −; degree of keratoconjunctival inflammation (S. flexneri Sf9380; 96 h, mouse 6): −; eye finding at 24 hours post-infection (S. flexneri Sf9380; [1]): slight conjunctival inflammation; time by which keratoconjunctivitis was resolved (S. flexneri Sf9380; [1]): ≤ 72 h; keratoconjunctival inflammation (words, abstract) (S. flexneri Sf9380): no inflammation |
